Data set [1] in a line: Storage stability of aqueous diclofenac solutions complexed with HPBCD (colour). Type of data set: physicochemical. How it is done: Occasionally the complexation in cyclodextrin has been carried out to protect the active ingredients from degradation phenomena, however with modest results (International Journal of Photoenergy, 3, 2001, 205-211). […] Finally, storage stability tests were carried out with various aqueous solutions of diclofenac sodium entirely complexed with hydroxypropyl beta ciclodextrin (HPBCD), having the following composition: diclofenac sodium 40.6 mg; HPBCD 177.6 mg; purified water 782.4 mg.

The nature of data set [2]: Water solubility of the active ingredient at room temperature. Type of data set: physicochemical. Conditions: room temperature (20° C.). Here is the method:
In a further embodiment, the active ingredient is a water-soluble one, i.e. it has a water solubility at room temperature (20° C.) higher than 0.1% w/v, preferably higher than 0.5% w/v, or more preferably higher than 1% w/v. […] According to this embodiment, the present invention is characterized as a soft gelatin capsule having inside a fill comprising a water-soluble active ingredient containing nitrogen, wherein the wall of said capsule comprises hydroxypropyl beta cyclodextrin (HPBCD) in an amount being: (a) less than 10% by weight on the weight of the wall and (b) sub-stoichiometric to form an inclusion complex with the active ingredient present in the fill.

Turning to `O=C(O)Cc1ccccc1Nc1c(Cl)cccc1Cl` [diclofenac], in data set [1] (aqueous solution complexed in HPBCD, storage at 25° C.±2° C., 60±5% R.H.), the “colour of the solution” value is listed as “amber colour”.
Regarding diclofenac epolamine [DHEP], in data set [2], the water solubility entry is “about 1.9 % w/v”.
On to `O=C(O)Cc1ccccc1Nc1c(Cl)cccc1Cl` [diclofenac sodium], for which, in data set [1] (aqueous solution entirely complexed with HPBCD, 18 months at 30° C. and 65% R.H.), the “colour of the solution” value is “evident amber colour”.

For the origin of these results see patent US11090271B2, “Soft gelatin capsules containing hydroxypropyl beta cyclodextrin with high stability” (ALTERGON S.A., priority 2017, dated 2021).
